One data set can be described thus: in vivo. To be noted: mouse, ip.
Data set [1] has as its system dopamine-β-hydroxylase. The experiment in a line: Noradrenaline content of spleen (dopamine-β-hydroxylase inhibiting effect). To be noted: Rattus norvegicus, ip, rats, i.p., 4 hours, ± Standard Error, read-out: Amine level, spleen NA (noradrenaline). Type of data set: in vivo, male Wister rats. Here is the method:
(§1) The dopamine-β-hydroxylase inhibiting effects of the compounds according to the invention were examined by the following tests:
(§2) The tests were performed on male Wister rats weighing 150 to 200 g. The dopamine-β-hydroxylase inhibiting effects of the compounds were evaluated by determining the change of noradrenaline, dopamine and adrenaline levels of the cerebrum, heart, spleen and adrenal gland. The serotonine and 5-hydroxy-indolyl-acetic acid levels of the cerebrum were also determined. The measurements were performed as follows:
(§3) The animals were decapitated, the cerebrum, heart, spleen and adrenal gland were removed quickly, and the organs were frozen by placing them onto a metal sheet cooled with dry ice. The frozen organs were stored for a maximum of one night at -20° C.
(§4) Determination of the noradrenaline content of heart and spleen
(§5) The organs were weighed in frozen state and then homogenized in 5.0 ml of 0.4 N perchloric acid containing 0.05% of EDTA-Na2 and 0.1% of Na2 S2 O5. The homogenized mixtures were centrifuged as described above for the treatment of adrenal gland, the supernatants were decanted, and the pH was adjusted to 8.0±0.1 with a 0.1 molar tris buffer containing 20 g/l of NaOH and 25 g/l of EDTA-Na2. 100 mg of prepared Al2 O3 (Anton et al: J. Pharm. Ther., Vol. 138, p. 360, 1962) were added to the samples, and the mixtures were shaken mechanically for 20 minutes. Thereafter the Al2 O3 were washed with 2.10 ml of distilled water, and the noradrenaline was eluted with 1.0 ml of 0.05 N perchloric acid. 0.5 ml samples of the eluate were applied for the determination of noradrenaline.
(§6) Noradrenaline was determined according to the method of Shellenberger et al (Anal. Biochem., Vol. 39, p. 356, 1971), with the following modifications of the basic procedure: 0.5 ml of 0.1 molar Na-K-phosphate buffer, containing 9 g/l of EDTA-Na2, were added to 0.5 ml of the eluate, and the catecholamines (noradrenaline in the examination of heart and spleen and noradrenaline and dopamine in the examination of the cerebrum) were oxidized with 0.1 ml of a 0.1 N iodine solution in 5% potassium iodide. […] Thereafter the samples were placed for 5 minutes in a drying oven heated to 100° C., and then the samples were cooled with ice water. The fluorescence of noradrenaline was measured with an OPTON spectrophotometer at wavelengths of 390 nm (excitation) and 490 nm (emission).
(§7) In the tests disulfiram, 2,2-dipyridyl, bis(1-methyl-4-homopiperazinyl-thiocarbonyl)-disulfide, sodium diethyldithiocarbamate and N-phenyl-N'-(2-thiazolyl)-thiourea were used as reference substances. The values indicated in Table 1 are percentages in relation to the amine levels of the controls measured in the same tests (± Standard Error). The statistical calculations were performed on a TPA/i type computer, using Student's test.

Data set [2] concerns dopamine-β-hydroxylase. The experiment in a line: Noradrenaline, dopamine, serotonine and 5-hydroxy-indolylacetic acid contents of cerebrum (dopamine-β-hydroxylase inhibiting effect). Type of data set: in vivo, male Wister rats. To be noted: Rattus norvegicus, ip, rats, i.p., 4 hours, ± Standard Error. Here is the method: as §1, §2, §3, §6
Determination of the noradrenaline, dopamine, serotonine and 5-hydroxy-indolylacetic acid contents of cerebrum
The brains were homogenized in 10 parts by volume of 0.4 N perchloric acid. The homogenized mixture was stored at -20° C. overnight; thereafter it was thawed and centrifuged as described above. A sample of homogenized mixture corresponding to 0.5 g of brain was removed, the pH of the sample was adjusted to 8.0±0.1 with 0.1 molar tris-buffer of the above composition, and the sample was processed as described above for the determination of the noradrenaline content of heart and spleen, with the difference that 1.5 ml of 0.05 N perchloric acid were applied as eluting agent. 0.5 ml of the eluate were applied to determine the noradrenaline and dopamine content. The measurement was performed as described above, with the difference that samples of 0.5 ml were applied for the recording of the fluorescence of noradrenaline. The residue was placed for 50 minutes into a drying oven heated to 100° C.; thereafter the sample was cooled with ice water, and the fluorescence of dopamine was recorded at wavelengths of 325 nm (excitation) and 380 nm (emission).
In a further test series the serotonine and 5-hydroxy-indolylacetic acid contents were also determined, in addition to the determination of the noradrenaline and dopamine contents, from the same sample. In this instance the brains were homogenized in 10 ml of 75% ethanol, 0.2 ml of EDTA-Na2 and 5% of ascorbic acid were added to the homogenized mixtures, and the homogenized mixtures were maintained at -20° C. overnight. The mixtures were then centrifuged as described above, and 5.0 ml samples of the supernatant were removed. The samples were diluted with equal volumes of distilled water, and poured onto ion-exchange columns of 0.5×1.5 cm dimensions, filled with buffered Amberlite CG-30 (200 to 400 mesh). The columns were washed with 5 ml of distilled water followed with 1.0 ml of 0.2 N hydrochloric acid, and the first effluent and the aqueous wash were collected for the determination of 5-hydroxy-indolylacetic acid. Elution was continued with further 1.2 ml of 0.2 N hydrochloric acid in order to remove noradrenaline, dopamine and serotonine. Samples of 0.3 ml were used for the determinations. […]

For data set [3], the system named is dopamine-β-hydroxylase. As to the kind of experiment: Noradrenaline content of heart (dopamine-β-hydroxylase inhibiting effect). To be noted: Rattus norvegicus, ip, rats, i.p., 4 hours, ± Standard Error, read-out: Amine level, heart NA (noradrenaline). Type of data set: in vivo, male Wister rats. As to the method: as §1, §2, §3, §4, §5, §6, §7
In data set [4] the test system is dopamine-β-hydroxylase. As to the kind of experiment: Adrenaline content of adrenal gland (dopamine-β-hydroxylase inhibiting effect). Type of data set: in vivo, male Wister rats. To be noted: Rattus norvegicus, ip, rats, i.p., 4 hours, ± Standard Error, read-out: Amine level, adrenal gland AD (adrenaline). As to the method:
as §1, §2, §3
Determination of the adrenaline content of adrenal gland
The adrenal glands were freed from fat and homogenized in 3.0 ml of ice-cold 0.4 N perchloric acid. The homogenized mixtures were centrifuged for 10 minutes at 0° C. with a speed of 3200 r.p.m. on a Janetzky K-70 type centrifuge. 0.05 ml samples were taken from the supernatant, and the adrenaline level was determined directly by the method of Laverty et al (Anal. Biochem., Vol. 22, p. 269, 1968).
as §7

In data set [5] the test system is dopamine-β-hydroxylase. The note with it: in words, prior art; cited from earlier work.
Where [6] appears, read: read-out: Amine level, cerebrum DA (dopamine).
The mark [7] stands for this setting: read-out: Amine level, cerebrum NA (noradrenaline).
The mark [8] stands for this setting: read-out: Amine level, cerebrum SE (serotonine).
The mark [9] stands for this setting: read-out: Level, cerebrum 5-HIAA (5-hydroxy-indolylacetic acid).

Where only a bound is given, the exact number is not on record here.

Consider `C=CCNC1=C(C(=S)S)CCC1` [Compound M-2, 2-(N-allyl)-amino-cyclopent-1-ene-dithiocarboxylic acid], for which, in “in vivo”, the LD50 (in general, the dose at which mortality reaches 50%) is around 500 mg/kg. Besides, the response vs control in vivo at 100 mg/kg in the data set on dopamine-β-hydroxylase [1] was 74.5 ± 10.2%; in the data set with dopamine-β-hydroxylase [2] (setting [6]), 108 ± 2.9%; in the data set on dopamine-β-hydroxylase [2] (setting [7]), 78.6 ± 3.3%; in the data set on dopamine-β-hydroxylase [2] (setting [8]) it was 118 ± 5.7%; in the data set with dopamine-β-hydroxylase [3], 81.3 ± 5.1%; with dopamine-β-hydroxylase [4] it was 103 ± 7.6%. The response vs control in vivo at 200 mg/kg in the data set on dopamine-β-hydroxylase [1] came out at 89.9 ± 11%; in the data set with dopamine-β-hydroxylase [2] (setting [6]), 119 ± 7%; in the data set on dopamine-β-hydroxylase [2] (setting [7]), 71.1 ± 3.9%; with dopamine-β-hydroxylase [2] (setting [8]) it was 109 ± 5.9%; in the data set with dopamine-β-hydroxylase [3], 123 ± 11.9%; in the data set with dopamine-β-hydroxylase [4] it was 71.9 ± 4.7%.

As for `OCCNC1=C(C(=S)S)CCC1` [Compound M-4, 2-(N-hydroxyethyl)-amino-cyclopent-1-ene-dithiocarboxylic acid], in “in vivo”, the median lethal dose (LD50) is around 800 mg/kg. Besides, the response vs control in vivo at 100 mg/kg with dopamine-β-hydroxylase [1] came out at 81.4 ± 9.4%; in the data set with dopamine-β-hydroxylase [2] (setting [6]) it was 110 ± 3.5%; with dopamine-β-hydroxylase [2] (setting [7]) it was 65.4 ± 4.9%; in the data set on dopamine-β-hydroxylase [2] (setting [8]), 110 ± 3.3%; with dopamine-β-hydroxylase [3] it was 85 ± 9.7%; with dopamine-β-hydroxylase [4], 82.7 ± 4.2%. Also, the response vs control in vivo at 200 mg/kg in the data set on dopamine-β-hydroxylase [1] worked out at 98.4 ± 17.1%; in the data set with dopamine-β-hydroxylase [2] (setting [6]) it was 126 ± 2.5%; in the data set on dopamine-β-hydroxylase [2] (setting [7]) it was 41.6 ± 2%; with dopamine-β-hydroxylase [2] (setting [8]) it was 122 ± 10.5%; with dopamine-β-hydroxylase [2] (setting [9]), 132 ± 12.6%; in the data set with dopamine-β-hydroxylase [3], 75.4 ± 8.3%. In addition, the response vs control in vivo at 200 mg/kg in the data set on dopamine-β-hydroxylase [4] worked out at 93.4 ± 7.5%.

`NC(CCCNC1=C(C(=S)S)CCC1)C(=O)O` (stereo not drawn) [Compound M-5, 2-[N-(4-carboxy-4-amino)-butyl]-amino-cyclopent-1-ene-dithiocarboxylicacid] had a 50% lethal dose (LD50) in the data set “in vivo” of around 700 mg/kg. The response vs control in vivo at 100 mg/kg in the data set with dopamine-β-hydroxylase [1] was 76.4 ± 11.1%; in the data set on dopamine-β-hydroxylase [2] (setting [6]) it was 100 ± 4.8%; with dopamine-β-hydroxylase [2] (setting [7]), 81.7 ± 4.5%; in the data set with dopamine-β-hydroxylase [2] (setting [8]), 110 ± 4.1%; in the data set on dopamine-β-hydroxylase [3], 98.4 ± 5.4%; with dopamine-β-hydroxylase [4], 69.4 ± 4%. The response vs control in vivo at 200 mg/kg is 67.1 ± 6.2% in the data set with dopamine-β-hydroxylase [1]; 102 ± 1.8% in the data set with dopamine-β-hydroxylase [2] (setting [6]); 69.3 ± 2.9% with dopamine-β-hydroxylase [2] (setting [7]); 114 ± 3.6% with dopamine-β-hydroxylase [2] (setting [8]); 141 ± 10% in the data set on dopamine-β-hydroxylase [2] (setting [9]); 75 ± 10.6% in the data set on dopamine-β-hydroxylase [3]. In the data set on dopamine-β-hydroxylase [4], the response vs control in vivo at 200 mg/kg amounted to 70.7 ± 3.3%.

In turn, `S=C(S)C1=C(NC2CCCCC2)CCC1` [Compound M-6, 2-(N-cyclohexyl)-amino-cyclopent-1-ene-dithiocarboxylic acid] came in with an LD50 in “in vivo” above 1000 mg/kg. Besides, the response vs control in vivo at 200 mg/kg in the data set with dopamine-β-hydroxylase [1] worked out at 98.1 ± 13.7%; in the data set on dopamine-β-hydroxylase [2] (setting [6]), 107 ± 5.6%; in the data set on dopamine-β-hydroxylase [2] (setting [7]) it was 40.7 ± 1.1%; in the data set with dopamine-β-hydroxylase [2] (setting [8]), 101 ± 5.1%; with dopamine-β-hydroxylase [2] (setting [9]) it was 150 ± 8.5%; in the data set on dopamine-β-hydroxylase [3], 92.7 ± 6.5%. Moreover, the response vs control in vivo at 200 mg/kg with dopamine-β-hydroxylase [4] amounted to 94.9 ± 3.4%.

In turn, `NC(CCCCNC1=C(C(=S)S)CCC1)C(=O)O` (stereo not drawn) [Compound M-7, 2-[N-(5-carboxy-5-amino)-pentyl]-amino-cyclopent-1-ene-dithiocarboxylic ac id] registered an LD50 in the data set “in vivo” of around 900 mg/kg. Further, the response vs control in vivo at 200 mg/kg in the data set with dopamine-β-hydroxylase [1] stood at 85.3 ± 17.7%; in the data set with dopamine-β-hydroxylase [2] (setting [6]), 106 ± 7.2%; in the data set on dopamine-β-hydroxylase [2] (setting [7]) it was 65.8 ± 3%; in the data set with dopamine-β-hydroxylase [2] (setting [8]) it was 99.7 ± 6.8%; in the data set with dopamine-β-hydroxylase [2] (setting [9]), 153 ± 13%; with dopamine-β-hydroxylase [3] it was 95.6 ± 8.5%. Further, the response vs control in vivo at 200 mg/kg in the data set with dopamine-β-hydroxylase [4] stood at 79.5 ± 6.5%.

For `S=C(S)C1=C(Nc2ccccc2)CCC1` [Compound M-8, 2-(N-phenyl)-amino-cyclopent-1-ene-dithiocarboxylic acid], the 50% lethal dose (LD50) in the data set “in vivo” was above 1000 mg/kg. Also, the response vs control in vivo at 200 mg/kg amounted to 71.3 ± 12.8% in the data set with dopamine-β-hydroxylase [1]; 97.3 ± 7.1% in the data set on dopamine-β-hydroxylase [2] (setting [6]); 75.6 ± 4.6% in the data set with dopamine-β-hydroxylase [2] (setting [7]); 102 ± 7.9% in the data set with dopamine-β-hydroxylase [2] (setting [8]); 135 ± 10% with dopamine-β-hydroxylase [2] (setting [9]); 99.9 ± 2.9% in the data set with dopamine-β-hydroxylase [3]. Also, in the data set on dopamine-β-hydroxylase [4], the response vs control in vivo at 200 mg/kg was 88.4 ± 4.6%.

`CN1CCCN(C(=S)SSC(=S)N2CCCN(C)CC2)CC1` [FLA-63, bis(1-methyl-4-homopiperazinyl)-thiocarbonyl-disulfide]: the “dopamine-β-hydroxylase inhibition in vivo” value in the data set with dopamine-β-hydroxylase [5] is listed as “one of the most potent dopamine-β-hydroxylase inhibitors in vivo”.
